The supplement of paper PMC10307832

Key:
Assay in all cases: relative viability (nuclei count vs DMSO), 5 days (fraction); higher = more cells survive
[1] = compound: COc1ccc(-c2ccc3c(N4CCOC[C@@H]4C)nc(N4CCOC[C@@H]4C)nc3n2)cc1CO [AZD8055] + NC(=O)Nc1cc(-c2cccc(F)c2)sc1C(=O)N[C@H]1CCCNC1 [AZD7762] (partner 0.2 µM)
Summary of the method: (§1)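 Relative viability is defined as nuclei in treated wells over nuclei in vehicle wells. Duplicate plates were run and medians reported. Lung cancer cell lines in 1536-well plates were dosed by pin tool one day after seeding, with one drug or with a fixed anchor-drug dose plus five library-drug doses (not always all listed) in √10 steps, and nuclei were counted after 5 days.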

[2] = compound: COc1ccc(-c2ccc3c(N4CCOC[C@@H]4C)nc(N4CCOC[C@@H]4C)nc3n2)cc1CO [AZD8055] + Nc1ncn([C@H]2C[C@H](O)[C@@H](CO)O2)c(=O)n1 [Decitabine] (partner 2 µM)
Summary of the method: as §1

[3] = compound: COc1ccc(-c2ccc3c(N4CCOC[C@@H]4C)nc(N4CCOC[C@@H]4C)nc3n2)cc1CO [AZD8055] + Cc1cc(Nc2cc(N3CCN(C)CC3)nc(Sc3ccc(NC(=O)C4CC4)cc3)n2)n[nH]1 [Tozasertib] (partner 0.1 µM)
Summary of the method: as §1

[4] = compound: COc1ccc(-c2ccc3c(N4CCOC[C@@H]4C)nc(N4CCOC[C@@H]4C)nc3n2)cc1CO [AZD8055] + CC(C)C[C@H](NC(=O)[C@H](Cc1ccccc1)NC(=O)c1cnccn1)B(O)O [Bortezomib] (partner 0.002 µM)
Summary of the method: as §1

NCI-H3122
relative viability ([1]; first compound 0.01 µM): 1.13
relative viability ([1]; first compound 0.03162 µM): 1.01
relative viability ([1]; first compound 0.1 µM): 0.594
relative viability ([1]; first compound 0.3162 µM): 0.351
relative viability ([1]; first compound 1 µM): 0.187
relative viability ([2]; first compound 0.01 µM): 0.442
relative viability ([2]; first compound 0.03162 µM): 0.341
relative viability ([2]; first compound 0.1 µM): 0.3
relative viability ([2]; first compound 0.3162 µM): 0.149
relative viability ([2]; first compound 1 µM): 0.129
relative viability ([3]; first compound 0.01 µM): 0.465
relative viability ([3]; first compound 0.03162 µM): 0.375
relative viability ([3]; first compound 0.1 µM): 0.315
relative viability ([3]; first compound 0.3162 µM): 0.178
relative viability ([3]; first compound 1 µM): 0.132
relative viability ([4]; first compound 0.01 µM): 1.14
relative viability ([4]; first compound 0.03162 µM): 0.998
relative viability ([4]; first compound 0.1 µM): 1.09
relative viability ([4]; first compound 0.3162 µM): 0.728
relative viability ([4]; first compound 1 µM): 0.657

PC-3 [JPC-3]
relative viability ([1]; first compound 0.01 µM): 0.772
relative viability ([1]; first compound 0.03162 µM): 0.681
relative viability ([1]; first compound 0.1 µM): 0.728
relative viability ([1]; first compound 0.3162 µM): 0.37
relative viability ([1]; first compound 1 µM): 0.399
relative viability ([2]; first compound 0.01 µM): 0.902
relative viability ([2]; first compound 0.03162 µM): 0.912
relative viability ([2]; first compound 0.1 µM): 0.797
relative viability ([2]; first compound 0.3162 µM): 0.758
relative viability ([2]; first compound 1 µM): 0.614
relative viability ([3]; first compound 0.01 µM): 0.864
relative viability ([3]; first compound 0.03162 µM): 0.993
relative viability ([3]; first compound 0.1 µM): 0.978
relative viability ([3]; first compound 0.3162 µM): 0.614
relative viability ([3]; first compound 1 µM): 0.431
relative viability ([4]; first compound 0.01 µM): 0.911
relative viability ([4]; first compound 0.03162 µM): 0.872
relative viability ([4]; first compound 0.1 µM): 0.83
relative viability ([4]; first compound 0.3162 µM): 0.687
relative viability ([4]; first compound 1 µM): 0.555

NCI-H1651
relative viability ([1]; first compound 0.01 µM): 0.499
relative viability ([1]; first compound 0.03162 µM): 0.431
relative viability ([1]; first compound 0.1 µM): 0.424
relative viability ([1]; first compound 0.3162 µM): 0.237
relative viability ([1]; first compound 1 µM): 0.161
relative viability ([2]; first compound 0.01 µM): 0.69
relative viability ([2]; first compound 0.03162 µM): 0.319
relative viability ([2]; first compound 0.1 µM): 0.481
relative viability ([2]; first compound 0.3162 µM): 0.416
relative viability ([2]; first compound 1 µM): 0.347
relative viability ([3]; first compound 0.01 µM): 0.695
relative viability ([3]; first compound 0.03162 µM): 0.64
relative viability ([3]; first compound 0.1 µM): 0.694
relative viability ([3]; first compound 0.3162 µM): 0.414
relative viability ([3]; first compound 1 µM): 0.317
relative viability ([4]; first compound 0.01 µM): 1.12
relative viability ([4]; first compound 0.03162 µM): 0.914
relative viability ([4]; first compound 0.1 µM): 0.924
relative viability ([4]; first compound 0.3162 µM): 0.609
relative viability ([4]; first compound 1 µM): 0.696

NCI-H2087
relative viability ([1]; first compound 0.01 µM): 1.37
relative viability ([1]; first compound 0.03162 µM): 1.36
relative viability ([1]; first compound 0.1 µM): 1.33
relative viability ([1]; first compound 0.3162 µM): 0.654
relative viability ([1]; first compound 1 µM): 0.478
relative viability ([2]; first compound 0.01 µM): 0.28
relative viability ([2]; first compound 0.03162 µM): 0.182
relative viability ([2]; first compound 0.1 µM): 0.236
relative viability ([2]; first compound 0.3162 µM): 0.153
relative viability ([2]; first compound 1 µM): 0.113
relative viability ([3]; first compound 0.01 µM): 0.276
relative viability ([3]; first compound 0.03162 µM): 0.242
relative viability ([3]; first compound 0.1 µM): 0.2
relative viability ([3]; first compound 0.3162 µM): 0.189
relative viability ([3]; first compound 1 µM): 0.162
relative viability ([4]; first compound 0.01 µM): 0.783
relative viability ([4]; first compound 0.03162 µM): 0.992
relative viability ([4]; first compound 0.1 µM): 0.796
relative viability ([4]; first compound 0.3162 µM): 0.441
relative viability ([4]; first compound 1 µM): 0.252
